What was measured:
HCV replicon = assay: Anti-HCV assay / replicon assay (EC50, luciferase read-out); format: cell-based, hepatitis C virus (HCV); conditions: for CC50/EC50: CC50/EC50 ratio (selectivity index); for EC50: Hepatitis C virus, 72 h, human hepatoma Huh-7 cell line harbouring a HCV replicon, 3 days, luciferase luminescence, read-out: EC50
Experimental: (§1) The anti-HCV activity of the pyrido[3,2-d]pyrimidine derivatives of this invention was tested in a human hepatoma Huh-7 cell line harbouring a HCV replicon. The assay comprised the following steps:
(§2) Step 1: Compound Preparation and Serial Dilution
(§3) • 1. for water soluble pyrido[3,2-d]pyrimidine derivatives, a volume of 500 μL of solution in cell media (DMEM, 10% FBS, P/S, L-Glutamine) was prepared with a concentration being twice the concentration of the starting final serial dilution concentration. […] The rest of the plate, columns 2-12, was filled with 100 μL of cell media. The plate was then placed on a Precision 2000 Workstation to start the serial dilution. Compounds were diluted three times each step from column 1 to column 10. Column 11 was used as a blank control (no compound added). • 2. for pyrido[3,2-d]pyrimidine derivatives requiring DMSO to dissolve, serial dilution is performed in 50% DMSO in a 384-well plate. A solution containing a compound at 100-fold concentration of the starting final serial dilution concentration was prepared in 50% DMSO and added to the pre-specified wells in column 1 of a polypropylene 384-well plate. The plate was then placed on a Precision 2000 Workstation to start the serial dilution. After the serial dilution, a volume of 2 μL of the solution was transferred from the 384-well plate to a 96-well cell culture plate containing 100 μL of cell media on a Biomek FX Workstation. The DMSO concentration in the final assay condition was 0.5% after cells are added to the plate and the total volume in each well is brought to 200 μL. Step 2: to each well of the serial dilution plate prepared above, 100 μL of cell media containing 6000 suspended Huh-7 HCV replicon cells was added with a Multidrop workstation. The plates were incubated for 3 days at 37° C. with 5% CO2. Step 3: Detection: • a) for the EC50 assay, the media in a 96-well cell culture plate was aspirated with a Biotek EL405 plate-washer. A volume of 200 μL of a solution containing a 1:1 mixture of cell-lysis buffer (Promega, Luciferase Cell Culture Lysis 5× Reagent, cat. #E1531) and luciferase substrate solution (Promega, Luciferase Assay, cat. #E4550) was added to each well of the plate with Multidrop.
(§4) Results in table 7 are expressed by the following data: • the 50% effective concentration (EC50), i.e. the concentration that protects 50% of the cell monolayer from virus-induced cythopathic effect, and • the 50% cytostatic concentration (CC50), i.e. the concentration that results in 50% inhibition of cell growth. Table 7 further indicates the nature of substituents being present in positions 2, 4 and 6 of the pyrido[3,2-d]pyrimidine derivatives of the invention.

[1] = CC50 assay in Huh-7 HCV replicon cells (CellTiter-Glo); format: cell-based, human; conditions: human, 50% cytostatic concentration
Experimental: as §1, §2, §3, §4

SMILES	CC50/EC50 (HCV replicon)	EC50 (HCV replicon) [nM]	CC50 at 3 days [1] [nM]
CC(=O)N1CCN(c2nc(N)nc3ccc(-c4ccc5c(c4)OCO5)nc23)CC1 [Example 184, 2-amino-4-[N-acetyl-piperazin-1-yl]-6-(3,4-methylenedioxyphenyl)-pyrido[3,2-d]pyrimidine]	128	170	21800
Nc1nc(N2CCN(C(=O)COc3ccc(Cl)cc3)CC2)c2nc(-c3ccc4c(c3)OCO4)ccc2n1 [Example 187, 2-amino-4-[N-(4-chlorophenoxy-acetyl)-piperazin-1-yl]-6-(3,4-methylenedioxyphenyl)-pyrido[3,2-d]pyrimidine]	64	19	1200
Cc1cccc(NC(=O)N2CCN(c3nc(N)nc4ccc(-c5ccc6c(c5)OCO6)nc34)CC2)c1 [Example 190, 2-amino-4-[N-(3-methyl-phenyl-carbamoyl)-piperazin-1-yl]-6-(3,4-methylenedioxyphenyl)-pyrido[3,2-d]pyrimidine]	51	12	610
COc1ccc(-c2ccc3nc(N)nc(N4CCCN(C(=O)Nc5cccc(C)c5)CC4)c3n2)cc1OC [Example 241, 2-amino-4-[(N-3-methylphenylcarbamoyl)-homopiperazin-1-yl]-6-(3,4-dimethoxyphenyl)-pyrido[3,2-d]pyrimidine]	218	11	2400
COc1ccc(-c2ccc3nc(N)nc(NC4CCN(C(=O)OC(C)(C)C)CC4)c3n2)cc1OC [Example 246, 2-amino-4-[(1-Boc-piperidin-4-yl)amino]-6-(3,4-dimethoxyphenyl)-pyrido[3,2-d]pyrimidine]	70	22	1500
COc1ccc(-c2ccc3nc(N)nc(NC4CCCN(C(=O)OC(C)(C)C)C4)c3n2)cc1OC (stereo not drawn) [Example 247, 2-amino-4-[(1-Boc-piperidin-3-yl)amino]-6-(3,4-dimethoxyphenyl)-pyrido[3,2-d]pyrimidine]	238	22	5200
COc1ccc(-c2ccc3nc(N)nc(NC4CCCN(C(=O)Nc5cccc(C)c5)C4)c3n2)cc1OC (stereo not drawn) [Example 254, 2-amino-4-[(3-methylphenylcarbamoylpiperidin-3-yl)amino)-6-(3,4-dimethoxyphenyl]-pyrido[3,2-d]pyrimidine]	147	50	7300
COc1ccc(-c2ccc3nc(N)nc(N4CCCC(C(=O)NCC(C)C)C4)c3n2)cc1OC (stereo not drawn) [Example 258, 2-amino-4-[(3-carboxylic acid isobutylamide)-piperidin-1-yl]-6-(3,4-dimethoxyphenyl)-pyrido[3,2-d]pyrimidine]	56	74	4200
COc1ccc(-c2ccc3nc(N)nc(N4CCN(CC(=O)NCCc5ccccc5)CC4)c3n2)cc1OC [Example 260, 2-amino-4-[4-(N-2-phenylethylacetamid-2-yl)piperazin-1-yl]-6-(3,4-dimethoxyphenyl)-pyrido[3,2-d]pyrimidine]	73	36	2600
COc1ccc(-c2ccc3nc(N)nc(NCCC(=O)N4CCN(C(C)=O)CC4)c3n2)cc1OC [Example 262, 2-amino-4-[3-(4-acetylpiperazin-1-yl)-propan-3-one-1-yl-amino]-6-(3,4-dimethoxyphenyl)-pyrido[3,2-d]pyrimidine]	261	96	25100
COc1ccc(-c2ccc3nc(N)nc(N4CCN(CC(=O)N5CCCC5)CC4)c3n2)cc1OC [Example 263, 2-amino-4-(N-pyrrolidinyl-acetamid-2-yl-piperazin-1-yl)-6-(3,4-dimethoxyphenyl)pyrido[3,2-d]pyrimidine]	102	28	2900
COc1ccc(-c2ccc3nc(N)nc(N4CCN(CC(=O)N5CCOCC5)CC4)c3n2)cc1OC [Example 265, 2-amino-4-[N-(piperazino)-acetyl-morpholino]-6-(3,4-dimethoxyphenyl)-pyrido[3,2-d]pyrimidine]	84	31	2600
CCOc1nc(N)nc2ccc(-c3ccccc3F)nc12 [Example 279, 2-amino-4-ethoxy-6-(o-fluorophenyl)-pyrido[3,2-d]pyrimidine]	54	690	37500
CCOc1nc(N)nc2ccc(-c3cccc(F)c3)nc12 [Example 280, 2-amino-4-ethoxy-6-(m-fluorophenyl)-pyrido[3,2-d]-pyrimidine]	125	300	37500
CCCOc1nc(N)nc2ccc(-c3ccc(F)cc3)nc12 [Example 283, 2-amino-4-n-propoxy-6-(p-fluorophenyl)-pyrido[3,2-d]pyrimidine]	221	95	21000
CC(=O)Nc1nc(OC(C)C)c2nc(-c3ccc(F)cc3)ccc2n1 [Example 285, 2-acetamido-4-isopropoxy-6-(p-fluorophenyl)-pyrido[3,2-d]pyrimidine]	492	51	25100
CCCCOc1nc(N)nc2ccc(-c3ccc(F)cc3)nc12 [Example 290, 2-amino-4-n-butoxy-6-(p-fluorophenyl)-pyrido[3,2-d]pyrimidine]	63	340	21300
CC(C)COc1nc(N)nc2ccc(-c3ccc(F)cc3)nc12 [Example 293, 2-amino-4-isobutoxy-6-(p-fluorophenyl)-pyrido[3,2-d]pyrimidine]	68	370	25100
CCC(C)Oc1nc(N)nc2ccc(-c3ccc(F)cc3)nc12 (stereo not drawn) [Example 296, 2-amino-4-sec. butoxy-6-(p-fluorophenyl)-pyrido[3,2-d]pyrimidine]	67	560	37500
CCCCCOc1nc(N)nc2ccc(-c3cccc(F)c3)nc12 [Example 298, 2-amino-4-n-pentyloxy-6-(m-fluorophenyl)-pyrido[3,2-d]pyrimidine]	77	365	28000
Nc1nc(OCC2CC2)c2nc(-c3ccc(F)cc3)ccc2n1 [Example 326, 2-amino-4-(cyclopropylmethyloxy)-6-(4-fluorophenyl)pyrido[3,2-d]pyrimidine]	254	99	25100
Nc1nc(OCC(F)(F)F)c2nc(-c3ccc(F)cc3)ccc2n1 [Example 351, 2-amino-4-(trifluoroethoxy)-6-(4-fluorophenyl)-pyrido[3,2-d]pyrimidine]	132	190	25100
CC(=O)Nc1ccc(-c2ccc3nc(N)nc(OC(C)C)c3n2)cc1 [Example 355, 2-amino-4-(isopropoxy)-6-(p-acetamidophenyl)-pyrido(3,2-d)pyrimidine]	120	210	25100
CC(=O)Nc1ccc(-c2ccc3nc(N)nc(OCC4CC4)c3n2)cc1 [Example 356, 2-amino-4-(cyclopropylmethyloxy)-6-(p-acetamidophenyl)-pyrido(3,2-d)pyrimidine]	87	290	25100
